According to paper PMC8667925, “New 1,2,4-oxadiazole derivatives with positive mGlu4 receptor modulation activity and antipsychotic-like properties” (Journal of Enzyme Inhibition and Medicinal Chemistry, 2021):
Entries after “also recorded” stand apart in the source; their conditions may differ.

Tests used:
mGlu4 receptor = molecular target: T1, mGlu4 receptor (Homo sapiens, UniProt Q14833); assay: forskolin-stimulated cAMP assay, PAM mode (EC20 of L-Glu), T-REx 293 cells; type: cell-based; conditions: for mGlu4 receptor PAM activity / EC50 / Emax: PAM mode; for mGlu4 receptor PAM activity / Emax: human mGlu4; for EC50: EC20 (3 µM) L-Glu, T-REx 293 cells expressing human mGlu4 receptor; for EC50 / Emax / Fold shift of L-Glu dose-response curve: SEM where given; for Emax: T-REx-293, read-out: GluMax; for Fold shift of L-Glu dose-response curve: in the presence of 10 µM of compound
T1 construct: mGlu4 receptor NM_000841, mGlu7 receptor NM_000844.2, and mGlu8 receptor NM_000845; expressed in transfected cells; host or cells: T-REx 293
Experimental: The activity of the compounds was assessed in vitro in a forskolin-stimulated cAMP assay in T-REx 293 cells expressing human mGlu4 receptors in the presence of an EC20 concentration of L-Glu; a PAM was identified if it potentiated cAMP inhibition by the Gi/o-dependent pathway of mGlu4 receptor activation; i.e. if it was able to produce a leftward shift in the potency of the endogenous agonist.
Determination of the intracellular cAMP through a homogeneous time-resolved fluorescence (HTRF) cAMP dynamic 2 kit from Cisbio (Codolet, France) was described previously by Chruścicka et al.[91]. Briefly, cells were grown in DMEM supplemented with 10% foetal bovine serum (FBS) (tetracycline free). Forty-eight hours before the experiments, mGlu receptor expression was induced by the addition of 0.75 µg/mL tetracycline. Twenty hours before the experiment, FBS and L-Glu were removed from the medium. Thereafter, the cells were scraped and centrifuged. A cell pellet was suspended in Hanks-HEPES (130 mM NaCl, 5.4 mM KCl, 1.8 mM CaCl2, 0.8 mM MgSO4, 0.9 mM NaH2PO4, 20 mM HEPES, and 3.25 mM glucose; pH 7.4). Then, the cell suspension was incubated in the presence of 10 µM forskolin (or 3 µM forskolin for mGlu7 receptor), the agonist L-glutamate and a compound for 5 min. Next, 10 µl of the cell suspension was mixed with 5 µl of cAMP-d2 conjugate and 5 µL of anti-cAMP cryptate conjugate. After 1 h of incubation at rt, the fluorescence at 620 nm and 665 nm was read (Tecan Infinite M1000). The results were calculated as the 665 nm/620 nm ratio multiplied by 10^4. Each sample was prepared in triplicate.
Statistical calculations were performed using GraphPad Prism 5.04 software (GraphPad Software, La Jolla, CA, USA). The curves were fitted to a 3-parametric logistic equation, allowing for the determination of EC50 values. Each data point was analysed in triplicate.

Albino Swiss mice [1] = assay: modified stress-induced hyperthermia (SIH) in singly housed mice; type: in vivo
Experimental: (§1) The compounds were dissolved in a small amount of 100% EtOH and then adjusted with 20% cyclodextrin, and the pH was adjusted to 6.0. The investigated compounds were administered intraperitoneally (i.p.) 60 min before the behavioural test. Control drugs i.e. diazepam, clozapine and imipramine (Sigma–Aldrich, St. Louis, USA), were administered i.p. 60 min before the behavioural test. Cyclodextrin (20%) was used as a vehicle. All solutions were prepared immediately prior to the experiments and were administered at a constant volume of 10 ml/kg.
The procedure for modified stress-induced hyperthermia was adapted from Van der Heyden[93] and based on the procedure introduced by Borsini[94]. Each experimental group consisted of eight to ten animals. The animals were housed individually in a 26 × 21 × 14 cm Macolon cage 24 h before testing. For this assay, the body temperature was measured for each mouse at t = 0 min (T1) and t = +15 min (T2). Albino Swiss mice were placed into a new cage immediately following T1, with the difference in temperature (T2−T1) used as the measure of stress-induced hyperthermia. […] A comparison between T1 in vehicle-treated mice and those administered the test compound was used to determine whether the agent affects body temperature alone. Diazepam (5 mg/kg) was used as the positive control. The rectal temperature was measured to the nearest 0.1 °C with a Physitemp Theralert thermometer, TH-5, Clifton NJ, USA, with the temperature sensor for mice, Type T, Copper-Constantan Thermocouple, Braintree Scientific Inc. The lubricated thermistor probe (2 mm diameter) was inserted 20 mm into the rectum. The mouse was held at the base of the tail during this determination, and the thermistor probe was left in place until a constant reading was obtained for 15 s. The effects of the investigated compounds on the SIH response were investigated after administration of the compounds at doses of 5, 10 and 20 mg/kg.

Albino Swiss mice [2] = assay: DOI-induced head twitch test (HTR); type: in vivo; conditions: over the doses 2.5, 5 and 10 mg/kg i.p.; DOI 2.5 mg/kg i.p.
Experimental: as §1
The experiments were performed according to the procedure described in our previous studies[75]^,[80]. Briefly, to habituate mice to the experimental environment, each animal was transferred to a 12 cm (diameter) × 20 cm (height) glass cage lined with sawdust 30 min before treatment. Test compounds were administered intraperitoneally (i.p.) at doses of 2.5, 5, and 10 mg/kg body weight 60 min before the test was performed. The head twitch response (HTR) in mice was induced by DOI (2.5 mg/kg, i.p.). Immediately after treatment, the number of head twitches was counted during a 20 min session. Haloperidol and clozapine were used as the reference compounds at active doses of 0.2 and 5 mg/kg, respectively.

T1 sequence (Q14833 33-912): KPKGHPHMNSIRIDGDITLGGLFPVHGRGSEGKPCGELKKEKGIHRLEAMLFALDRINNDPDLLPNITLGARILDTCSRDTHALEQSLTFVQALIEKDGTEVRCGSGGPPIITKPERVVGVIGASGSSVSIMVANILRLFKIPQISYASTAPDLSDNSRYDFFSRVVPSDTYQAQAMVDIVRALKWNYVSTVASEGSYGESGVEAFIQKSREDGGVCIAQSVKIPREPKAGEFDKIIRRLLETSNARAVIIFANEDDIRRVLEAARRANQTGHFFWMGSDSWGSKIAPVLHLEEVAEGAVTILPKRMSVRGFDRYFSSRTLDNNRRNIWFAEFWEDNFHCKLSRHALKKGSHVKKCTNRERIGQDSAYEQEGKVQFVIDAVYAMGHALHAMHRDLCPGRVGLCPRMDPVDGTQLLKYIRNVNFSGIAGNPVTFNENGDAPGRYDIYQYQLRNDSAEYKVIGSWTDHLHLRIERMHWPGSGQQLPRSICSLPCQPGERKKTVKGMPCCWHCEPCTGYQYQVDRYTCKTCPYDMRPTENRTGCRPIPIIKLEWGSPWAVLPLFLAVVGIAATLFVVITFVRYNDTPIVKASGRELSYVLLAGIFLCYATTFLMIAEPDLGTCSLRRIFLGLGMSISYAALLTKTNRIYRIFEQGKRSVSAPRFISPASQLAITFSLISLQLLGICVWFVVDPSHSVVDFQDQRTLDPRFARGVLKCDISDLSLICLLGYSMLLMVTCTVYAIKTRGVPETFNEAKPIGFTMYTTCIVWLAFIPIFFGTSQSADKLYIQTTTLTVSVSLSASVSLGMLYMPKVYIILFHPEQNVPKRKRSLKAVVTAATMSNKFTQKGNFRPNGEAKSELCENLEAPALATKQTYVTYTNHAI

For `COc1ccc(-c2nc(-c3ccc(NC(=O)c4cccs4)cc3)no2)cc1` [Compound 17c], the “mGlu4 receptor PAM activity” value (mGlu4 receptor) was “not tolerated”.

`O=C(Nc1ccc(-c2noc(-c3ccccc3Cl)n2)cc1)c1ccccn1` [Compound 17d] was tested, and the EC50 (mGlu4 receptor) was 3.7 µM, the Emax (mGlu4 receptor) was 116% and the “Fold shift of L-Glu dose-response curve” value (mGlu4 receptor) was 1.8.

With `COc1cc(NC(=O)c2ccccn2)ccc1-c1noc(-c2ccccc2)n1` [Compound 33] the EC50 (mGlu4 receptor) was 1.83 µM, the Emax (mGlu4 receptor) was 130% and the “Fold shift of L-Glu dose-response curve” value (mGlu4 receptor) was 5.3.

For `COc1cc(NC(=O)c2ccccn2)ccc1-c1noc(-c2cccc(Cl)c2)n1` [Compound 35], the EC50 (mGlu4 receptor) was 5.3 µM, the Emax (mGlu4 receptor) was 145% and the “Fold shift of L-Glu dose-response curve” value (mGlu4 receptor) was 2.2.

`COc1cc(NC(=O)c2ccccn2)ccc1-c1noc(-c2ccc(Cl)cc2)n1` [Compound 36] was tested, and the EC50 (mGlu4 receptor) was 1.98 µM, the Emax (mGlu4 receptor) was 157% and the “Fold shift of L-Glu dose-response curve” value (mGlu4 receptor) was 2.0.

In the case of `COc1cc(NC(=O)c2ccccn2)ccc1-c1noc(-c2ccc(F)cc2Cl)n1` [Compound 38], the EC50 (mGlu4 receptor) is reported as 1.98 µM, the Emax (mGlu4 receptor) is reported as 124% and the “Fold shift of L-Glu dose-response curve” value (mGlu4 receptor) is reported as 4.6.

With `COc1cc(NC(=O)c2ncc(Cl)cc2F)ccc1-c1noc(-c2ccccc2Cl)n1` [Compound 40] the “mGlu4 receptor PAM activity” value (mGlu4 receptor) was “did not potentiate cAMP inhibition”.

With `COc1cc(NC(=O)c2cccc(Cl)n2)ccc1-c1noc(-c2ccccc2Cl)n1` [Compound 41] the EC50 (mGlu4 receptor) was 1.92 µM, the Emax (mGlu4 receptor) was 115% and the “Fold shift of L-Glu dose-response curve” value (mGlu4 receptor) was 4.1.

`COc1ccc(Cl)c(C(=O)Nc2ccc(-c3noc(-c4ccccc4Cl)n3)c(OC)c2)n1` [Compound 42] was tested, and the “mGlu4 receptor PAM activity” value (mGlu4 receptor) was “did not potentiate cAMP inhibition”, the “effect on SIH response” value (Albino Swiss mice [1]; over the doses 5, 10 and 20 mg/kg i.p.) was “None of the administered doses of compound 42 statistically affected the SIH; also recorded: failed to alter SIH” and the “effect on DOI-induced HTR” value (Albino Swiss mice [2]) was “failed to alter SIH and block DOI-induced HTR”.

With `COc1cc(NC(=O)c2cc(F)cc(F)n2)ccc1-c1noc(-c2ccccc2Cl)n1` [Compound 43] the EC50 (mGlu4 receptor) was 2.5 µM, the Emax (mGlu4 receptor) was 134% and the “Fold shift of L-Glu dose-response curve” value (mGlu4 receptor) was 5.0.

`COc1cc(NC(=O)c2ccncn2)ccc1-c1noc(-c2ccccc2Cl)n1` [Compound 45] was tested, and the EC50 (mGlu4 receptor) was 3.1 µM, the Emax (mGlu4 receptor) was 118% and the “Fold shift of L-Glu dose-response curve” value (mGlu4 receptor) was 3.1.

In the case of `COc1cc(NC(=O)c2nccs2)ccc1-c1noc(-c2ccccc2Cl)n1` [Compound 46], the EC50 (mGlu4 receptor) is reported as 2.2 µM, the Emax (mGlu4 receptor) is reported as 126% and the “Fold shift of L-Glu dose-response curve” value (mGlu4 receptor) is reported as 3.6.

`COc1cc(NC(=O)c2cccc(F)n2)ccc1-c1noc(-c2ccccc2F)n1` [Compound 47] was tested, and the EC50 (mGlu4 receptor) was 0.89 µM, the Emax (mGlu4 receptor) was 121% and the “Fold shift of L-Glu dose-response curve” value (mGlu4 receptor) was 6.9.

With `COc1cc(NC(=O)c2nc(Cl)ccc2Cl)ccc1-c1noc(-c2ccccc2F)n1` [Compound 48] the “mGlu4 receptor PAM activity” value (mGlu4 receptor) was “did not potentiate cAMP inhibition”.

In the case of `O=C(Nc1ccc(-c2noc(-c3ccccc3Cl)n2)c(Cl)c1)c1cccc(F)n1` [Compound 50], the “mGlu4 receptor PAM activity” value (mGlu4 receptor) is reported as “unable to modulate mGlu4 receptor activity”.

For `O=C(Nc1ccc(-c2noc(-c3ccccc3Cl)n2)c(Cl)c1)c1cccc(Cl)n1` [Compound 51], the “mGlu4 receptor PAM activity” value (mGlu4 receptor) was “unable to modulate mGlu4 receptor activity”.

`O=C(Nc1ccc(-c2noc(-c3ccc(F)cc3Cl)n2)c(Cl)c1)c1ccccn1` [Compound 53] was tested, and the EC50 (mGlu4 receptor) was 1.35 µM, the Emax (mGlu4 receptor) was 119% and the “Fold shift of L-Glu dose-response curve” value (mGlu4 receptor) was 2.1.

In the case of `COc1ccccc1-c1nc(-c2ccc(NC(=O)c3ccccn3)cc2Cl)no1` [Compound 54], the EC50 (mGlu4 receptor) is reported as 0.75 µM, the Emax (mGlu4 receptor) is reported as 111% and the “Fold shift of L-Glu dose-response curve” value (mGlu4 receptor) is reported as 2.2.

`O=C(Nc1ccc(-c2noc(-c3ccccc3)n2)c(F)c1)c1ccccn1` [Compound 55] was tested, and the EC50 (mGlu4 receptor) was 2.56 µM, the Emax (mGlu4 receptor) was 127% and the “Fold shift of L-Glu dose-response curve” value (mGlu4 receptor) was 3.0.

With `O=C(Nc1ccc(-c2noc(-c3ccccc3)n2)c(C(F)(F)F)c1)c1ccccn1` [Compound 59] the EC50 (mGlu4 receptor) was 0.74 µM, the Emax (mGlu4 receptor) was 150% and the “Fold shift of L-Glu dose-response curve” value (mGlu4 receptor) was 7.6.

With `Cc1cc(NC(=O)c2ccccn2)ccc1-c1noc(-c2ccccc2)n1` [Compound 61] the EC50 (mGlu4 receptor) was 1.65 µM, the Emax (mGlu4 receptor) was 128% and the “Fold shift of L-Glu dose-response curve” value (mGlu4 receptor) was 5.1.

For `CN1C(=O)CN=C(c2ccccc2)c2cc(Cl)ccc21` [diazepam, reference compound], the “effect on SIH response” value (Albino Swiss mice [1]; 5 mg/kg i.p., 60 min before test) was “significantly reduced SIH”.
